Assay results reported in ChEMBL document CHEMBL4354835, “Selective Blockade of Neuronal BK (α + β4) Channels Preventing Epileptic Seizure” (J Med Chem, 2020).
Where a chain is given by its changes, count along the chain named. The source made the active and inactive calls. The calls are words filed in the database; no cut-off is given here.

Key:
[1] = target: T1, Calcium-activated potassium channel subunit beta-4 (Homo sapiens, UniProt Q86W47); assay: Binding affinity to NT-495 fluorophore reagent labelled human BK beta4 (45 to 166 residues) incubated for 30 mins by microscale thermophoresis assay; details: read-out: Kd
T1 sequence (Q86W47 whole entry): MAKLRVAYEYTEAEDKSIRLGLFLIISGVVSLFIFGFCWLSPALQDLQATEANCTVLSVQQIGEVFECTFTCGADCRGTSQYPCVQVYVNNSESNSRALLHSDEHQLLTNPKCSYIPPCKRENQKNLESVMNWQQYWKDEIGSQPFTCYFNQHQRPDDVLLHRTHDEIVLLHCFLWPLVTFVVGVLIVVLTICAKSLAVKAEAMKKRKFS

Rattus norvegicus [2] = species: Rattus norvegicus; assay: (§1) Neuroprotective activity in PTZ-induced epileptic seizure Sprague-Dawley rat model assessed as inhibition of hippocampal destruction by measuring increase in Nissl stained granular neurons in ipsilateral hippocampus DG region compound infused into hippocampal region and 10 mins later injected with PTZ and measured after 3 days by Nissl staining based microscopic analysis; type: functional, organism-based
[3] = target: T2, KCNMA1/KCNMB4 (Rattus norvegicus) (UniProt Q62976+Q9ESK8); assay: Inhibition of BK alpha/beta-4 in PTZ-stimulated rat hippocampal pyramidal neurons assessed as increase in AHP size at 300 pA at -80mV holding potential measured after 10 mins by whole cell current clamp assay; type: protein-complex assay
Rattus norvegicus [4] = species: Rattus norvegicus; assay: as §1, with “pyramidal” for “granular”, “CA3” for “DG”; type: functional, organism-based
[5] = test system: T3, Calcium-activated potassium channel subunit beta-4 (Homo sapiens), Q86W47 [E122K]; assay: Binding affinity to NT-495 fluorophore reagent labelled human BK beta4 E122K mutant incubated for 30 mins by microscale thermophoresis assay
T3 sequence (whole entry): T1 sequence (Q86W47 whole entry) with E122K

Rattus norvegicus [6] = species: Rattus norvegicus; assay: Effect on neuronal network in PTZ-induced epileptic seizures Sprague-Dawley rat model assessed as lowered PSD at theta wave band compound infused into hippocampal region and 10 mins later injected with PTZ and measured after 2 hrs by power spectral density analysis; type: functional, organism-based
Rattus norvegicus [7] = species: Rattus norvegicus; assay: Effect on neuronal network in PTZ-induced epileptic seizures Sprague-Dawley rat model assessed as lowered PSD at gamma wave band compound infused into hippocampal region and 10 mins later injected with PTZ and measured after 2 hrs by power spectral density analysis; type: functional, organism-based
Rattus norvegicus [8] = species: Rattus norvegicus; assay: Inhibition of field potential response in PTZ-induced epileptic seizure Sprague-Dawley rat model compound infused into hippocampal region and 10 mins later injected with PTZ and measured after 2 hrs by microarray electrode based analysis; type: functional, organism-based
[9] = target: T2, KCNMA1/KCNMB4 (Rattus norvegicus); assay: Inhibition of BK alpha/beta-4 in PTZ-stimulatedrat hippocampal pyramidal neurons assessed as reduction in neuronal firing rate at -80mV holding potential in presence of 200 to 300 pA current injection measured after 10 mins by whole cell current clamp assay; type: protein-complex assay
Homo sapiens = species: Homo sapiens; assay: Inhibition of human BK alpha/human beta4 E122K mutant expressed in HEK293T cells assessed as K+ fractional outward current at 10 uM at -80 mV holding potential by whole cell patch clamp technique relative to control; type: cell-based
KCNMA1/KCNMB4 = KCNMA1/KCNMB4 (Homo sapiens, UniProt Q12791+Q86W47); assay: Inhibition of human BK alpha/beta4 channel expressed in HEK293T cells assessed as inhibition of K+ outward current fraction at -80 mV holding potential by whole cell patch clamp technique; type: cell-based
Rattus norvegicus [10] = species: Rattus norvegicus; assay: Effect on neuronal network in PTZ-induced epileptic seizures Sprague-Dawley rat model assessed as lowered PSD at alpha wave band compound infused into hippocampal region and 10 mins later injected with PTZ and measured after 2 hrs by power spectral density analysis; type: functional, organism-based
[11] = target: Calcium-activated potassium channel subunit beta-4 (Homo sapiens, UniProt Q86W47, E104K); assay: Binding affinity to NT-495 fluorophore reagent labelled human BK beta4 E104K mutant incubated for 30 mins by microscale thermophoresis assay
Chain of Calcium-activated potassium channel subunit beta-4 (Homo sapiens, UniProt Q86W47, E104K) (Q86W47 whole entry E104K): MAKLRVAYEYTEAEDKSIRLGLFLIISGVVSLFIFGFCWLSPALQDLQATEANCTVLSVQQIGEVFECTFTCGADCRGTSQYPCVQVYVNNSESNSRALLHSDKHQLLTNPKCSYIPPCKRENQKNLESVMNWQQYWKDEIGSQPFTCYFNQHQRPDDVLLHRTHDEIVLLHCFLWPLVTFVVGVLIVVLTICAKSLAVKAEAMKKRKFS

Chain of KCNMA1/KCNMB4 (Q12791 whole entry, one chain of several, the tested form may be a part): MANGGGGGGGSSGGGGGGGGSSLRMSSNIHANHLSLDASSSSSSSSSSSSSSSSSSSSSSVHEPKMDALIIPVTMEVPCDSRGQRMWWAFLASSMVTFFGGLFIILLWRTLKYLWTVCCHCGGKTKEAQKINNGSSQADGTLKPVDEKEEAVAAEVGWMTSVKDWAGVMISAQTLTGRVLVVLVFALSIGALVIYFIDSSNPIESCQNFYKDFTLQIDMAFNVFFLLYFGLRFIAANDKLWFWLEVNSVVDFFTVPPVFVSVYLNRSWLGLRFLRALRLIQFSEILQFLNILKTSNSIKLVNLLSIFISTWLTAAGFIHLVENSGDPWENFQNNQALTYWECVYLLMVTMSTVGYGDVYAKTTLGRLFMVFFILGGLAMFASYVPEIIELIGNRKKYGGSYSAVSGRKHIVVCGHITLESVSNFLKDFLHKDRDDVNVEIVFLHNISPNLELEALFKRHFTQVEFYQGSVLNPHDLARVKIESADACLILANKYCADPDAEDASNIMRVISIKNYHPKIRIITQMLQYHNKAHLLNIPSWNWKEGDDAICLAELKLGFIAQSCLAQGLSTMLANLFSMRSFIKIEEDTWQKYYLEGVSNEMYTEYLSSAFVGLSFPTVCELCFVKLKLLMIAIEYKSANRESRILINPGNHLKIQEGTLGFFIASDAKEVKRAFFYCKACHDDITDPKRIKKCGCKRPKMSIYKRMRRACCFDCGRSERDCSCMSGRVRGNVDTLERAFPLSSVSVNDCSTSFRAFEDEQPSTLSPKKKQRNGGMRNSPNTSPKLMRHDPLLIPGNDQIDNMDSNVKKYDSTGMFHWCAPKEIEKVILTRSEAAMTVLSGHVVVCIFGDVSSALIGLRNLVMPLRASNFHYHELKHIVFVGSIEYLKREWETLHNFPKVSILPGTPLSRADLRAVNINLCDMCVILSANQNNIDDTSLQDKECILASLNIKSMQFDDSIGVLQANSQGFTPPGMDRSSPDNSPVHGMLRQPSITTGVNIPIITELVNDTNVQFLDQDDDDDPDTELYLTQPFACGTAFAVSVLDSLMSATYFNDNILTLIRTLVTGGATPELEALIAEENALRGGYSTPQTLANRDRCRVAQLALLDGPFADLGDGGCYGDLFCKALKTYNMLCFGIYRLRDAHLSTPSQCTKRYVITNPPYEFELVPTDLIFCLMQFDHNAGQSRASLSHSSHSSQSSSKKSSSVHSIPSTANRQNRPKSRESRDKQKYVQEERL

CC[C@H](C)[C@H](NC(=O)[C@H](CC(C)C)NC(=O)CNC(=O)[C@H](Cc1ccccc1)NC(=O)[C@H](CO)NC(=O)CN)C(=O)N[C@@H](CC(=O)O)C(=O)N[C@H](C(=O)N[C@@H](CCCCN)C(=O)N[C@H]1CSSC[C@@H]2NC(=O)[C@H](CCCCN)NC(=O)CNC(=O)[C@H](CCC(N)=O)NC(=O)CNC(=O)[C@H](CO)NC(=O)CNC(=O)[C@H]([C@@H](C)O)NC(=O)[C@H](C(C)C)NC(=O)[C@H](CCCCN)NC(=O)[C@H](CCCCN)NC(=O)[C@@H]3CSSC[C@@H](C(=O)N[C@@H](Cc4ccc(O)cc4)C(=O)O)N[C@@H](CCCNC(=N)N)C(=O)[C@H](CSSC[C@H](NC(=O)[C@H](CCC(=O)O)NC(=O)[C@H](CO)NC(=O)[C@H](CO)NC(=O)[C@H](C)NC(=O)[C@H](Cc4ccccc4)NC1=O)C(=O)N[C@@H](Cc1c[nH]c4ccccc14)C(=O)N[C@@H]([C@@H](C)O)C(=O)N[C@@H](C)C(=O)N3)N[C@@H](CCC(N)=O)C(=O)NC(=O)[C@H](CC(N)=O)NC(=O)[C@H](CC(N)=O)NC(=O)[C@H](CCC(N)=O)NC2=O)C(C)C
Kd [1]: 511 µM | Activity (Rattus norvegicus [2]): Active | inhibition [3]: Active | Activity (Rattus norvegicus [4]): Active | Activity [5]: inactive | Activity (Rattus norvegicus [6]): Active | Activity (Rattus norvegicus [7]): Active | inhibition (Rattus norvegicus [8]): Active | inhibition [9]: Active | Ratio (Homo sapiens): 0.88 | IC50 (KCNMA1/KCNMB4): 0.602 µM | Activity (Rattus norvegicus [10]): Active | Kd [11]: 782 µM
